Laboratory results: patent EP0908457B1, “3-(1,2-benzisothiazol- and isoxazol-5-Y1)-2,4(1H,3H)-pyrimidinedione or thione and 3-(1,2-benzisothiazol- and isoxazol-5-y1)-4(3H)-pyrimidinone or thione herbicidal agents” (BASF AKTIENGESELLSCHAFT, priority 1997, dated 1999)

Key:
[1] = system: Echinochloa oryzoides (Ard.) Fritsch.; test: Preemergence weed control under flooded paddy conditions, ECHORC (Watergrass (Calif.)); format: in vivo; settings: preemergence, flooded paddy; on herbicidal effect rating, ECHORC: meaning of each grade not given here
Cyperus iria = test: Preemergence weed control under flooded paddy conditions, CYPIR (Rice Flatsedge); format: in vivo; settings: preemergence, flooded paddy; on herbicidal effect rating, CYPIR: meaning of each grade not given here
[2] = system: Cyperus serotinus, Rottb.; test: Preemergence weed control under flooded paddy conditions, CYPSE (Flatsedge); format: in vivo; settings: preemergence; on herbicidal effect rating, CYPSE: meaning of each grade not given here
[3] = system: Monochoria vaginalis, Presl.; test: Preemergence weed control under flooded paddy conditions, MOOVA (Monochoria); format: in vivo; settings: preemergence, flooded paddy; on herbicidal effect rating, MOOVA: meaning of each grade not given here
Sagittaria pygmaea, L. = test: Preemergence weed control under flooded paddy conditions, SAGPY (Arrowhead (Pygmaea)); format: in vivo; settings: preemergence, flooded paddy; on herbicidal effect rating, SAGPY: meaning of each grade not given here
[4] = system: Oryza sativa, (L.) Tebonnet; test: Rice tolerance to post-transplant applications under flooded paddy conditions (Example 187), ORYSAT (Rice, Tebonnet); on herbicidal effect rating ORYSAT: meaning of each grade not given here
[5] = Rate 0.0320 kg/ha, rated 3-4 weeks after treatment
[6] = Rate 0.0620 kg/ha, rated 3-4 weeks after treatment
[7] = Rate 0.1250 kg/ha, rated 3-4 weeks after treatment
[8] = Rate 0.2500 kg/ha, rated 3-4 weeks after treatment
[9] = Rate 0.5000 kg/ha, rated 3-4 weeks after treatment
[10] = 0.0313 kg/ha, rated three to four weeks after treatment
[11] = 0.0625 kg/ha, rated three to four weeks after treatment
[12] = 0.1250 kg/ha, rated three to four weeks after treatment
[13] = 0.2500 kg/ha, rated three to four weeks after treatment
[14] = Rate 0.0320 kg/ha, rated three to four weeks after treatment
[15] = Rate 0.0620 kg/ha, rated three to four weeks after treatment
[16] = Rate 0.1250 kg/ha, rated three to four weeks after treatment
[17] = Rate 0.2500 kg/ha, rated three to four weeks after treatment
[18] = 0.0320 kg/ha, rated three to four weeks after treatment
[19] = 0.0620 kg/ha, rated three to four weeks after treatment

Cc1ccc(OC(C)(C)C(=O)OC(C)C)c(-c2nsc3ccc(-n4c(=O)cc(C(F)(F)F)n(C)c4=O)cc23)c1 [Example 547, Propionic acid, 2-{{2-{5-[3,6-dihydro-3-methyl-2,6-dioxo-4-(trifluoromethyl)-1(2H)-pyrimidinyl]-1,2-benzisothiazol-3-yl}-p-tolyl}oxy}-2-methyl-, isopropyl ester]
5.4: herbicidal effect rating, ECHORC [1, 5] | herbicidal effect rating, ECHORC [1, 6]
5.6: herbicidal effect rating, ECHORC [1, 7]
4.0: herbicidal effect rating, SAGPY (Sagittaria pygmaea, L.; [6]) | herbicidal effect rating, SAGPY (Sagittaria pygmaea, L.; [7]) | herbicidal effect rating ORYSAT [4, 7] | herbicidal effect rating ORYSAT [4, 8]
0.0: herbicidal effect rating, CYPSE [2, 9]
3.0: herbicidal effect rating, SAGPY (Sagittaria pygmaea, L.; [9]) | herbicidal effect rating ORYSAT [4, 6] | herbicidal effect rating ORYSAT [4, 9]
8.0: herbicidal effect rating, CYPSE [2, 6] | herbicidal effect rating, CYPSE [2, 7]
7.0: herbicidal effect rating, CYPIR (Cyperus iria; [5]) | herbicidal effect rating, CYPIR (Cyperus iria; [6]) | herbicidal effect rating, CYPSE [2, 8] | herbicidal effect rating, SAGPY (Sagittaria pygmaea, L.; [8])
9.0: herbicidal effect rating, ECHORC [1, 8] | herbicidal effect rating, ECHORC [1, 9] | herbicidal effect rating, CYPIR (Cyperus iria; [7]) | herbicidal effect rating, CYPIR (Cyperus iria; [8]) | herbicidal effect rating, CYPIR (Cyperus iria; [9]) | herbicidal effect rating, MOOVA [3, 5] | herbicidal effect rating, MOOVA [3, 6] | herbicidal effect rating, MOOVA [3, 7] | herbicidal effect rating, MOOVA [3, 8] | herbicidal effect rating, MOOVA [3, 9]
2.0: herbicidal effect rating, SAGPY (Sagittaria pygmaea, L.; [5]) | herbicidal effect rating ORYSAT [4, 5]
6.0: herbicidal effect rating, CYPSE [2, 5]

Cc1ccc(OCC(=O)OCCN(C)C)c(-c2nsc3ccc(-n4c(=O)cc(C(F)(F)F)n(C)c4=O)cc23)c1 [Example 70, 2-(Dimethylamino)ethyl {{2-{5-[3,6-dihydro-3-methyl-2,6-dioxo-4-(trifluoromethyl)-1(2H)-pyrimidinyl]-1,2-benzisothiazol-3-yl}-p-tolyl}oxy}acetate]
6.0: herbicidal effect rating, ORYSAT (rice tolerance) [4, 12]
7.0: herbicidal effect rating, CYPIR (Cyperus iria; [11])
8.0: herbicidal effect rating, ECHORC [1, 11]
9.0: herbicidal effect rating, ECHORC [1, 12] | herbicidal effect rating, ECHORC [1, 13] | herbicidal effect rating, CYPIR (Cyperus iria; [12]) | herbicidal effect rating, CYPIR (Cyperus iria; [13]) | herbicidal effect rating, MOOVA [3, 10] | herbicidal effect rating, MOOVA [3, 11] | herbicidal effect rating, MOOVA [3, 12] | herbicidal effect rating, MOOVA [3, 13]
3.0: herbicidal effect rating, ORYSAT (rice tolerance) [4, 10]
4.0: herbicidal effect rating, ECHORC [1, 10]
1.0: herbicidal effect rating, SAGPY (Sagittaria pygmaea, L.; [12])
4.5: herbicidal effect rating, ORYSAT (rice tolerance) [4, 11]
0.0: herbicidal effect rating, CYPSE [2, 10] | herbicidal effect rating, CYPSE [2, 11] | herbicidal effect rating, CYPSE [2, 12] | herbicidal effect rating, CYPSE [2, 13] | herbicidal effect rating, SAGPY (Sagittaria pygmaea, L.; [10]) | herbicidal effect rating, SAGPY (Sagittaria pygmaea, L.; [11])
2.0: herbicidal effect rating, CYPIR (Cyperus iria; [10]) | herbicidal effect rating, SAGPY (Sagittaria pygmaea, L.; [13])
6.5: herbicidal effect rating, ORYSAT (rice tolerance) [4, 13]

Cc1ccc(OCC(=O)NS(=O)(=O)c2sc3ccc(Cl)cc3c2C)c(-c2nsc3ccc(-n4c(=O)cc(C(F)(F)F)n(C)c4=O)cc23)c1 [Example 290, Acetamide, N-[(5-chloro-3-methylbenzo[b]thien-2-yl)sulfonyl]-2-{{2-{5-[3,6-dihydro-3-methyl-2,6-dioxo-4-(trifluoromethyl)-1(2H)-pyrimidinyl]-1,2-benzisothiazol-3-yl}-p-tolyl}oxy}-]
0.0: ECHORC herbicidal effect rating [1, 14] | ECHORC herbicidal effect rating [1, 15] | CYPSE herbicidal effect rating [2, 14] | CYPSE herbicidal effect rating [2, 15] | CYPSE herbicidal effect rating [2, 16] | CYPSE herbicidal effect rating [2, 17] | MOOVA herbicidal effect rating [3, 14] | SAGPY herbicidal effect rating (Sagittaria pygmaea, L.; [14]) | SAGPY herbicidal effect rating (Sagittaria pygmaea, L.; [15]) | SAGPY herbicidal effect rating (Sagittaria pygmaea, L.; [16]) | SAGPY herbicidal effect rating (Sagittaria pygmaea, L.; [17]) | ORYSAT herbicidal effect rating [4, 14] | ORYSAT herbicidal effect rating [4, 15] | ORYSAT herbicidal effect rating [4, 16] | ORYSAT herbicidal effect rating [4, 17]
6.0: CYPIR herbicidal effect rating (Cyperus iria; [14]) | CYPIR herbicidal effect rating (Cyperus iria; [15]) | CYPIR herbicidal effect rating (Cyperus iria; [16]) | CYPIR herbicidal effect rating (Cyperus iria; [17])
7.0: ECHORC herbicidal effect rating [1, 17] | MOOVA herbicidal effect rating [3, 15] | MOOVA herbicidal effect rating [3, 16] | MOOVA herbicidal effect rating [3, 17]
3.0: ECHORC herbicidal effect rating [1, 16]

C=CS(=O)(=O)NC(=O)C(C)Oc1ccc(C)cc1-c1nsc2ccc(-n3c(=O)cc(C(F)(F)F)n(C)c3=O)cc12 (stereo not shown) [Example 570, Propionamide, 2-{{2-{5-[3,6-dihydro-3-methyl-2,6-dioxo-4-(trifluoromethyl)-1(2H)-pyrimidinyl]-1,2-benzisothiazol-3-yl}-p-tolyl}oxy}-N-(vinylsulfonyl)-]
0.0: herbicidal effect rating, ECHORC [1, 14] | herbicidal effect rating, CYPIR (Cyperus iria; [14]) | herbicidal effect rating, CYPIR (Cyperus iria; [15]) | herbicidal effect rating, CYPIR (Cyperus iria; [16]) | herbicidal effect rating, CYPSE [2, 14] | herbicidal effect rating, CYPSE [2, 15] | herbicidal effect rating, CYPSE [2, 16] | herbicidal effect rating, CYPSE [2, 17] | herbicidal effect rating, MOOVA [3, 14] | herbicidal effect rating, MOOVA [3, 15] | herbicidal effect rating, MOOVA [3, 16] | herbicidal effect rating, SAGPY (Sagittaria pygmaea, L.; [14]) | herbicidal effect rating, SAGPY (Sagittaria pygmaea, L.; [15]) | herbicidal effect rating, SAGPY (Sagittaria pygmaea, L.; [16]) | herbicidal effect rating, SAGPY (Sagittaria pygmaea, L.; [17]) | herbicidal effect rating ORYSAT [4, 14]
3.0: herbicidal effect rating ORYSAT [4, 17]
6.0: herbicidal effect rating, ECHORC [1, 17]
4.0: herbicidal effect rating, ECHORC [1, 16]
1.0: herbicidal effect rating ORYSAT [4, 15]
2.0: herbicidal effect rating, ECHORC [1, 15] | herbicidal effect rating ORYSAT [4, 16]
9.0: herbicidal effect rating, CYPIR (Cyperus iria; [17]) | herbicidal effect rating, MOOVA [3, 17]

Cc1cccc(CS(=O)(=O)NC(=O)c2nsc3ccc(-n4c(=O)cc(C(F)(F)F)n(C)c4=O)cc23)c1 [Example 483, 1,2-Benzisothiazole-3-carboxamide, 5-[3,6-dihydro-3-methyl-2,6-dioxo-4-(trifluoromethyl)-1(2H)-pyrimidinyl]-N-[(m-methylbenzyl)sulfonyl]-]
2.0: CYPIR herbicidal rating (Cyperus iria; [19])
5.0: CYPIR herbicidal rating (Cyperus iria; [12]) | SAGPY herbicidal rating (Sagittaria pygmaea, L.; [13]) | ORYSAT herbicidal rating (rice tolerance) [4, 12]
0.0: CYPIR herbicidal rating (Cyperus iria; [18]) | SAGPY herbicidal rating (Sagittaria pygmaea, L.; [18]) | SAGPY herbicidal rating (Sagittaria pygmaea, L.; [19])
4.0: CYPSE herbicidal rating [2, 19]
3.0: SAGPY herbicidal rating (Sagittaria pygmaea, L.; [12]) | ORYSAT herbicidal rating (rice tolerance) [4, 18] | ORYSAT herbicidal rating (rice tolerance) [4, 19]
9.0: MOOVA herbicidal rating [3, 19] | MOOVA herbicidal rating [3, 12] | MOOVA herbicidal rating [3, 13]
6.0: ECHORC herbicidal rating [1, 18] | CYPIR herbicidal rating (Cyperus iria; [13]) | CYPSE herbicidal rating [2, 13] | ORYSAT herbicidal rating (rice tolerance) [4, 13]
7.0: ECHORC herbicidal rating [1, 19] | ECHORC herbicidal rating [1, 12] | ECHORC herbicidal rating [1, 13] | MOOVA herbicidal rating [3, 18]

CC(C)OP(=O)(Cc1nsc2ccc(-n3c(=O)cc(C(F)(F)F)n(C)c3=O)cc12)OC(C)C [Example 263, 1,2-Benzisothiazole-3-methanephosphonic acid, 5-[3,6-dihydro-3-methyl-2,6-dioxo-4-(trifluoromethyl)-1(2H)-pyrimidinyl]-, diisopropyl ester]
7.0: CYPIR herbicidal effect rating (Cyperus iria; [15])
6.0: MOOVA herbicidal effect rating [3, 16]
4.0: CYPIR herbicidal effect rating (Cyperus iria; [14]) | ORYSAT herbicidal effect rating [4, 17]
2.0: ECHORC herbicidal effect rating [1, 17]
9.0: CYPIR herbicidal effect rating (Cyperus iria; [16]) | CYPIR herbicidal effect rating (Cyperus iria; [17]) | CYPSE herbicidal effect rating [2, 14] | CYPSE herbicidal effect rating [2, 15] | CYPSE herbicidal effect rating [2, 16] | CYPSE herbicidal effect rating [2, 17] | MOOVA herbicidal effect rating [3, 17]
0.0: ECHORC herbicidal effect rating [1, 14] | ECHORC herbicidal effect rating [1, 15] | ECHORC herbicidal effect rating [1, 16] | MOOVA herbicidal effect rating [3, 14] | MOOVA herbicidal effect rating [3, 15] | SAGPY herbicidal effect rating (Sagittaria pygmaea, L.; [14]) | SAGPY herbicidal effect rating (Sagittaria pygmaea, L.; [15]) | SAGPY herbicidal effect rating (Sagittaria pygmaea, L.; [16]) | SAGPY herbicidal effect rating (Sagittaria pygmaea, L.; [17]) | ORYSAT herbicidal effect rating [4, 14] | ORYSAT herbicidal effect rating [4, 15] | ORYSAT herbicidal effect rating [4, 16]
